For one compound, MIC results are on record in US4372961A, “Derivatives of rifamycins, their preparation and pharmaceutical compositions thereof” (priority 1980, dated 1983).

Structures are written as SMILES. ≈ marks a conversion by molar mass, not a printed value.

What is called MIC is the lowest concentration found to suppress growth.

The test deals with Staphylococcus aureus. Nature of the test: antibiotic activity (MIC) on Staphylococcus aureus. The test is classed as cell-based.

`CO[C@H]1/C=C/O[C@@]2(C)Oc3c(C)c(O)c4c(O)c(c(/C=N/N5CCN(C)CC5)c(O)c4c3C2=O)NC(=O)/C(C)=C\C=C\[C@H](C)[C@H](O)[C@@H](C)[C@@H](O)[C@@H](C)[C@H](OC(C)=O)[C@@H]1C` [rifampicin] showed an MIC of about 0.01 µg/mL (≈ 0.0122 µM).
